Key:
[1] = tested on: T1, PDE4 partially purified from human U-937 myeloid leukemia cells; assay: PDE4 Assay (enzyme from U-937 cells, [3H]cAMP); assay type: biochemical; settings: PDE4 from U-937 cells, Tris buffer pH 7.5, 20 minutes at 25° C.
T1 construct: PDE4 partially purified from human U-937 myeloid leukemia cells was used

female CBA/J mice = assay: Local lymph node assay (hypersensitivity response); assay type: in vivo
[2] = tested on: IL-1β production by human PBMCs; assay: IL-1β production by LPS- or PHA-stimulated PBMCs; assay type: cell-based
PDE3 Cat = tested on: T2, PDE3 Cat; assay: PDE3 inhibition; assay type: biochemical
T2 construct: Recombinant human PDE enzymes were expressed in a baculoviral system.; PDE isoforms tested include

[3] = tested on: TNF-α, IFN-γ, IL-1μ, IL-2, IL-4, IL-5, IL-6, IL-8, IL-10, IL-12, and IL-23; assay: Release of pro-inflammatory cytokines (summary statement); assay type: cell-based
Source text: (§1) This activity is explained in part by the inhibition of phosphodiesterase-4 (PDE-4).

MCP-1 and PGE2 = assay: Release of chemokine MCP-1 and PGE2; assay type: cell-based
Source text: as §1

## N#Cc1ccc(Oc2ccc3c(c2)COB3O)cc1 [C17, 5-(4-cyanophenoxy)-1-hydroxy-1,3-dihydro-2,1-benzoxaborole]
[1]
  IC50: < 1 µM
Female CBA/J mice; mouse, in vivo
  skin sensitizing activity: not considered to have skin sensitizing activity
Female CBA/J mice; topical 1%, 5%, and 10% solution in acetone/ethanol (50:50, v/v)
  stimulation index: < 3
[2]; PBMC, LPS- and PHA-induced cytokine production by human PBMCs, read-out: IC50 IL-1β (pro-inflammatory cytokines)
  IC50: > 30 µM
[2]; PBMCs
  effect on IL-1: not affected
PDE3 Cat
  inhibition of PDE3: does not significantly inhibit
PDE3 Cat; standard: Cilostazol
  IC50: 1 to 10 µM
[3]
  release of pro-inflammatory cytokines including TNF-α, IFN-γ, IL-1μ, IL-2, IL-4, IL-5, IL-6, IL-8, IL-10, IL-12, and IL-23: inhibition of the release
MCP-1 and PGE2
  release of the chemokine MCP-1 and PGE2: inhibits the release
